What was measured:
[1] = Appearance of the solution in water pH = 10 at 24 hours; assay type: physicochemical; conditions: 50% stock plus water pH = 10
[2] = tested on: Escherichia coli (E. coli); test: Microbial testing, standard pour plate count; assay type: cell-based
Description: The purpose of this study was to evaluate the effectiveness of test materials labeled #6, #7 and #8, in killing or reducing Escherichia coli (E. coli). The standard pour plate count test method was used to evaluate Percent Reduction of Colony Forming Units (CFU).
The E. coli (lot number 168756) was purchased from Quanti-Cult™ and is derived from original ATCC® stock cultures. They are received dehydrated. A viable streak plate was colonized from this culture. One colony was transferred to 5 ml of sterile Tryptic Soy Broth (lot # A3303) and incubated overnight. Antimicrobial activity was determined by comparing results from the test sample to simultaneously run controls or from the T0. The concentration of the suspension was determined using serial dilution and plate counts to determine the amount of Colony Forming Units (CFU's)/ml of suspension.
The materials tested in this study are described in the Purpose section. Sterile 0.3 mM KH2PO4 buffer was inoculated to a concentration of ˜1.0-3.0×10^5 CFU/ml. A To plate originated from the inoculated buffer for quantification and prepared 1:100 dilution to insure that viable inoculum was applied in the test system. The test materials were formulated in 20×150 […] test tubes. Aliquots of 0.3 grams of each of the materials (#6, #7 and #8) were added to sterile test tubes. […]

[3] = tested on: Cercospora; test: Laboratory over-spray of sugar beet leaf cultures on agar incubation plates; assay type: cell-based; conditions: L-1 and Control leaf cultures; 0.5% solution with 5211 surfactant in water; 24 hours incubation
Description: The initial leaf cuttings from L-1 to L-3 were used for additional evaluations. […] All of the leaves were very green, showing no signs of Cercospora. When the leaves were cultured and incubated (three plates per sample), the plate counts on all of the samples were too numerous to count (TNTC) indicating signs of Cercospora infection.
The control sample was taken from a known infected control sample. In addition to the normal culturing process, leaf samples from L-1 and the Control were treated in the laboratory. This involved placing the leaf culture onto the agar incubation plate, over spraying the plate with a 0.5% solution Ztrex 72 and 5211 surfactant in water. The plates were further incubated for 24 hours.
Our Control sample was obtained from Michigan Sugar Company, Bay City, Mich. and was used for all of the initial lab studies.

Row | SMILES | Solution @ 24 hours [1] | Application, microbial kill [2] | Plate count ([2]; 0.3 grams in 5 ml Tryptic Soy Broth, 1×10^5 CFU E. coli, 48 hours, T0 9.6×10^4 CFU/ml) | Evidence of Cercospora on the incubation plate [3]
1 | CO[Si](CCc1ccc(S(=O)(=O)Cl)cc1)(OC)OC [#8, 2-(4-chlorosulfonylphenyl)ethyltrimethoxysilane] | Clear | 99.99 | 16 CFU/ml | 
2 | CCCCCCCCCCCCCCCCCC[N+](C)(C)CCC[Si](OC)(OC)OC.[Cl-] [Ztrex 72, (CH3O) Si (CH2)N^+ (CH3)2 (C18H37) Cl^−] |  |  |  | no evidence of Cercospora
